{"source": "patent US20230414601A1", "about": "“INJECTABLE COMPOSITION CONTAINING CASPASE INHIBITOR, AND PREPARATION METHOD THEREFOR” (LG CHEM, LTD., priority 2020, published 2023)", "assay": "Test for API loss according to continuous phase", "type": "physicochemical", "protocol": "A dispersed phase was prepared by dissolving a certain amount of the Test Compound (API) in an organic solvent (dichloromethane, DCM), and 1 mL of the prepared dispersed phase was added to each continuous phase and then stirred to measure the amount of the API extracted into the continuous phase.", "data": [{"smiles": "CC(C)[C@@]1(C(=O)N[C@H]2CC(=O)O[C@]2(O)CF)CC(c2nccc3ccccc23)=NO1", "note": "[Test Compound, (R)-N-((2S,3S)-2-(fluoromethyl)-2-hydroxy-5-oxotetrahydrofuran-3-yl)-5-isopropyl-3-(isoquinolin-1-yl)-4,5-dihydroisoxazole-5-carboxamide]", "values": [{"measurement": "Amount of API extracted into continuous phase (%)", "setting": "continuous phase 0.01N HCl", "value": 4.0, "unit": "%"}, {"measurement": "Amount of API extracted into continuous phase (%)", "setting": "continuous phase DW, dispersed phase API in DCM, 1 mL", "value": 3.7, "unit": "%"}, {"measurement": "Amount of API extracted into continuous phase (%)", "setting": "continuous phase PVA 1 wt %", "value": 24.9, "unit": "%"}, {"measurement": "Amount of API extracted into continuous phase (%)", "setting": "continuous phase PVA 1 wt % + 1N HCl", "value": 13.1, "unit": "%"}, {"measurement": "Amount of API extracted into continuous phase (%)", "setting": "continuous phase PVA 5 wt %", "value": 59.3, "unit": "%"}]}]}
